Read-outs that look alike come from different tables or passages of the source.
Columns and labels:
L. casei TS-[3H]FdUMP = biological target: T1, L. casei TS-[3H]FdUMP (Lacticaseibacillus casei, UniProt P00469); assay: TS-[3H]FdUMP-folate ternary complex binding assay
T1 sequence (P00469 1-316): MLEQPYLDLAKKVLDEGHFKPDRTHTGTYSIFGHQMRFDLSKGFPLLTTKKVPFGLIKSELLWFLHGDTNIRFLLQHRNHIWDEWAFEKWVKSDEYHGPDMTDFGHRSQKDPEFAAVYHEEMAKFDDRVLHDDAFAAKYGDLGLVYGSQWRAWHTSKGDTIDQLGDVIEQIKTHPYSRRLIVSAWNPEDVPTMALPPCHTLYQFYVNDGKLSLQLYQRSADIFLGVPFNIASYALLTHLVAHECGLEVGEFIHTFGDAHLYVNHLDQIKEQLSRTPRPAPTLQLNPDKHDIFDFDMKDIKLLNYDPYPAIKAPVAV
Procedure: The CH2 FH4 was prepared as the racemic (6R, S) material from (6R, S)-FH4 and excess formaldehyde, and DEAE-column isolation as described in FIG. 1. This preparation was essentially free of free formaldehyde based on colorimetric assay of bulk material (Nash, Biochem. J. 55:416-21 (1953)).
At all concentrations (total assays volume 150 μl ), excess formaldeyde was required to obtain maximal binding (which was still only 19.3% of stoichiometric binding). A notable effect was the increasing need for formaldehyde addition with increasing dilution, to obtain maximal CH2 FH4 assay recovery.
TS[^3 H]FdUMP-folate ternary complex formation without formaldehyde
addition was 38.5% of the value for the natural (6R)CH2 FH4 wit
6 mM formaldehyde added. (About 1 pmole of parent CH2 FH4 was
^b Only 11.8 ± 7.9% of maximal L. casei TS[^3 H]FdUMP-folate
ternary complex formation (using 6 mM formaldehyde concentration) which i
(§1) The unnatural diastereomer, (6S)-CH2 FH4 prepared by DEAE-column,potassium bicarbonate separation from the natural diasteromer as described in Example 8, was dissolved in 0.2M Tris-HCl buffer, pH 7.0, containing sodium ascorbate (100 mM) and 2-mercaptoethanol. This preparation was from the same lot of material described in Example 8. As noted in the footnote of Table VII, in the absence of supplemental formaldehyde, the yield of dextrancharcoal isolated complex was 38.5% of the value for the natural (6R)-CH2 FH4 (with added 6 mM formaldehyde).

[1] = tested on: transplanted colon cancer; assay: Comparison of natural and unnatural CH2 FH4 diastereomers in rats bearing transplanted colon cancer; type: in vivo, rat; conditions: 15 mg/kg, Day 17, no fluorinated pyrimidine
From the text: A study has been completed, for comparison of natural (6R)-CH2 FH4 and unnatural (6S)-CH2 FH4 diastereomers. The preparation of the two forms was done as described by Kisliuk, et al., Cancer Treat. Rep. 61:647-50 (1977), using DEAE-cellulose column chromatography, with elution by potassium bicarbonate buffer. The two separate major peaks were individually pooled, lyophilized to dryness, and used for injection. As in the original detailed description of the method of Kisliuk, et al. (Biochem. 20:929-934), the methylene content was substoichiometric with tetrahydrofolate (FH4). That is, methylene units were present in apparently lower concentration than FH4 concentrations.
Rats bearing the transplanted colon cancer, as described in Example 4 and in Carlsson, et al., Anticancer. Res. 10:813-816, 1991, were treated with either the (6R)-CH2 FH4 or the (6S)-CH2 FH4, formulated and injected according to the methods described in Table IV, except that the injected amounts were 15 mg/kg per dose.
At Day 17, the rats were sacrificed, and the tumors were measured for both volume end weight. Volumes were calculated by the equation for an ellipsoid in revolution, V=(4/3)πab^2 were a=the long diameter/2 and b=the perpendicular short diameter/2.
The filled circles are the weights and volumes of tumors of rats treated with the unnatural (6S)-CH2 FH4 diastereomer (mostly (6R)-FH4 material in dilute solution and blood); the triangles are results for the natural (6R)-CH2 FH4 (mostly (6S)-FH4); and the open circles, control non-treated tumors. It is emphasized here that no fluorinated pyrimidine was used, just the folate injections.

L. casei TS = biological target: T2, L. casei TS (Lacticaseibacillus casei, UniProt P00469); assay: L. casei/dUMP spectrophotometric cofactor assay; type: biochemical
T2 construct: spectrophotometric cofactor assay with dUMP
T2 sequence (P00469 1-316): T1 sequence (P00469 1-316)
Procedure: CH2 FH4 as the equal mixture of diastereomers (optical isomers or enantiomers at the C6-position; both diastereomers are of the natural L-configuration at the alpha-carbon position of the glutamate moiety) was prepared from (6R,S)-tetrahydrofolic acid, commercially available from Sigma, in the examples described below. The method of synthesis has been described previously (C. P. Spears and B. Gustavsson, Adv. Exp. Med. Biol. 244:98-104 (1988)). To (6R, S)-tetrahydrofolate (6R, S-FH4) powder, (100 mg) is added 360 μL of 1.0M Na Ascorbate, pH 6.5, 68 μL of 37% (w/w) formaldehyde (CH2 O), and 16 mL phosphate buffer, pH 7.0. A 10-min room temperature incubation allows completion of formation of (6R,S)-CH2 FH4. This material is applied to a DEAE-cellulose column using a modification of a well-known procedure (Kaufman et al., J. Biol. Chem. 238:1498-1500 (1963)). A step elution with NH4 HCO3 buffers of increasing concentration and pH, leads to isolation of CH2 FH4 in the last pooled fraction. […] CH2 FH4, prepared with [^14 C]CH2 O as described previously (Moran et al. Proc. Natl. Acad. Sci. USA 76:1456-60, 1979). […]

TS [2] = biological target: T3, TS (Homo sapiens, UniProt P04818); assay: TS activity in intact CCRF-CEM human lymphoblast cells by tritiated water release from [5-3H]deoxyuridine; type: cell-based; conditions: for tritiated water production: 48 μM; for remaining activity at 48 µM: read-out: tritiated water production, % of control
T3 construct: activity of TS in the intact cells; endogenous in cells; host or cells: CCRF-CEM human lymphoblast cells
Procedure: as §1
Separate cultures tubes at 37° C. with 1 ml each of CCRF-CEM human lymphoblast cells, 4.6×10^5 cells/ml, in exponential log phase growth were exposed to the unnatural diastereomer, (6R)-FH4 (made up from (6S)-CH2 FH4, 1.56 mM stock solution, with 32 microliters added to each ml of cells), 48 μM final concentration. Cells were incubated for 30, 60, and 120 minutes of drug exposure, prior to addition of [5-^3 H]deoxyuridine (150,000 CPM of approx. 18-20 Ci/mmo. spec. act.) and 10 min. 37° C. incubation prior to 3% charcoal addition for isolation of tritiated water. The amount of tritiated water is proportional to the activity of TS in the intact cells (N. Kundu et al., J. Med. Chem. 33:1975-79 (1990)).

[3] = humans; cited from earlier work
[4] = biological target: T4, thymidylate synthase (TS) (Mus musculus, UniProt P07607); assay: TS inhibition in murine colon carcinoma tumor CA51 (Tumor 51) after i.p. 5-FU with or without CH2 FH4; type: in vivo; conditions: for Free TS / inhibition at 80 mg/kg: 5-FU 80 mg/kg i.p.; for Free TS: CH2 FH4 27 mg/kg in (6R), not corrected; for inhibition at 80 mg/kg: mouse, ip, baseline total TS 10.00 pmol/g
T4 construct: [6-3H]FdUMP titration of free TS
Procedure: (6R, S)-CH2 FH4 was prepared by the DEAE-cellulose column procedure, described above, using step-elution of the material as previously reported for purification of nucleotides (Moran et al., Proc. Natl. Aca. Sci. USA 76:1456-60 (1979)). […] Because of the high formaldehyde, this solution was over 2 mM in CH2 FH4, with less FH4 present as the solution isomer. After 20 min at room temperature, this solution was applied to a 1×3-cm DEAE-cellulose column; in the last step, the 500 mM NH4HCO3 (pH 8.0) fraction (30 mL) was pooled, lyophilized to dryness, and stored under vacuum in glass ampoules. This fraction contains both diastereomers of CH2 FH4.
On the day of reconstituting the above CH2 FH4, mice bearing subcutaneous murine colon carcinoma Tumor 51 were administered intraperitoneal (i.p.) 5-FU, with or without concomitant i.p. CH2 FH4 by separate injection. The 5-FU was given at a dose of 1.6 mg per mouse, about 80 mg/kg. The CH2 FH4 was given at a dose of 0.5 mL of the 2.4 mM material ([…]), above. The in vivo methodologies were essentially as had previously been described (C. P. Spears, et al., Cancer Res. 42:450-56 (1982)). […] The levels of apparent free TS in tumors of mice receiving CH2 FH4 concomitant with 5-FU were at, or below, that level due to exchange-labeling of endogenous TS-FdUMP-folate ternary complexes in the cytosolic extracts. […] This is exactly the qualitative difference between sensitivity and resistance to 5-FU previously established (see Spears et al., Cancer Res. 42:450-52 (1982)).

[5] = tested on: hepatic colonic carcinoma; assay: Tumor weight in rats bearing transplanted hepatic colonic carcinoma; type: in vivo, rat; conditions: Day 17 after transplantation; 30 mg/kg each; average of 3 rats; control 5.84
From the text: (§2) The present inventors have considerable experience with this model, and the antitumor effects of 5-FU shown are typical results, as are the TS and folate assays of control and 5-FU-only-treated rats. […] In fact, the "free TS" levels in the (6R,S)-FH4 -only-treated rats were the lowest of all arms of the study.
>94% by HPLC). The (6 R,S)FH 4 was weighed, dissolved in normal
saline, and injected daily by tail vein administration using the airfree
Protector device to prevent oxidative destruction of the folate.
(§3) ^b Inoculation of 1 × 10^6 viable colon tumor
(§4) (nitrosoguanidineinduced) cells under the liver capsule on Day 1 (Carlsso
(§5) et al., Anticancer Res. 10:813-16 (1990)). Animals sacrificed on Day 17
(§6) for excision of single liver tumor nodules for pharmacodynamic studies.

TS [6] = assay: TS assay in liver tumors of rats bearing transplanted hepatic colonic carcinoma; type: in vivo, rat; conditions: 30 mg/kg each; 24 h after last injection; control 18.96
From the text: as §2, §3, §4, §5, §6
(§7) ^d Assays done as described (Spears et al. Adv. Exp. Med. Biol.

[7] = tested on: 5,10-CH2 FH4 and FH4 levels in liver tumor; assay: Folate assay (5,10-CH2 FH4 and FH4) in liver tumors of rats; type: in vivo, rat; conditions: 30 mg/kg each, 24 h after last injection
From the text: as §2, §3, §4, §5, §6, §7

[8] = biological target: T4, thymidylate synthase (TS); conditions: murine colon cancer; cited from earlier work

T4 sequence (P07607 whole entry): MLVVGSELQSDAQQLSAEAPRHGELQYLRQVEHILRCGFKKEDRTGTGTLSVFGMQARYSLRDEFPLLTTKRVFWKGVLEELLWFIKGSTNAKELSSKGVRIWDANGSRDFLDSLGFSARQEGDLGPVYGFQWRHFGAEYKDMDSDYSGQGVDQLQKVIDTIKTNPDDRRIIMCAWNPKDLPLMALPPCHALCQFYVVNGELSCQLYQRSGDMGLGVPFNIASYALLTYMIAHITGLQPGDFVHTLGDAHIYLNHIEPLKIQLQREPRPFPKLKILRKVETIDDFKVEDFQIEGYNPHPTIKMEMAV
T3 sequence (P04818 whole entry): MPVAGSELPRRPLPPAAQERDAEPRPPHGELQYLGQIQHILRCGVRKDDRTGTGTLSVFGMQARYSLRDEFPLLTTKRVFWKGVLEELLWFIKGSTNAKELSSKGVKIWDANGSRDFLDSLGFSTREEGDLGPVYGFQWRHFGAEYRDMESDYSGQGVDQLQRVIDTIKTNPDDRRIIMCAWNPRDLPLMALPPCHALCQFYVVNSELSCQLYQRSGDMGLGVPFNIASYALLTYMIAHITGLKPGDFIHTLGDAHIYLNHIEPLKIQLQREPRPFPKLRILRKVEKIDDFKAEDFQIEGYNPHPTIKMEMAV

In the case of `Nc1nc2c(c(=O)[nH]1)N1CN(c3ccc(C(=O)N[C@@H](CCC(=O)O)C(=O)O)cc3)C[C@@H]1CN2` [(6S)-CH2 FH4], the “TS-[3H]FdUMP-ternary complex yield, % of value for natural (6R)-CH2 FH4 with 6 mM formaldehyde” value (L. casei TS-[3H]FdUMP; in the presence of formaldehyde) is reported as 23.3%, the “TS-[3H]FdUMP-folate ternary complex formation, % of value for natural (6R)-CH2 FH4 with 6 mM formaldehyde” value (L. casei TS-[3H]FdUMP; without formaldehyde addition) is reported as 38.5% and the “Tumor volume ± SE” value ([1]; control 7.81) is reported as 0.74. The “Tumor weight ± SE” value ([1]; control 7.93) was 2.14, the cofactor activity (L. casei TS) was “No cofactor activity” and the tritiated water production (TS [2]; 30 min exposure, control 2566) was 2004 CPM. For the same molecule, the tritiated water production (TS [2]; 60 min exposure, control 2662) was 1750 CPM, the tritiated water production (TS [2]; 120 min exposure, control 2902) was 1146 CPM and the remaining activity at 48 µM (TS [2]; CCRF-CEM, 30 min) was 78.1%. It also gave a remaining activity at 48 µM (TS [2]; CCRF-CEM, 60 min) of 65.7%, a remaining activity at 48 µM (TS [2]; CCRF-CEM, 120 min) of 39.5% and an inhibition at 48 µM (TS [2]; CCRF-CEM, two hour time point) of 60.5%.

In the case of `C=O` [CH2 O, formaldehyde], the “oral LDLo (lowest lethal dose)” value [3] is given as 36 mg/kg.

With `O=c1[nH]cc(F)c(=O)[nH]1` [5-FU, 5-Fluorouracil] the “Free TS” value ([4]; 1 h) was 1.67 pmol/g, the “Free TS” value ([4]; 3 h) was 1.00 pmol/g and the “Free TS” value ([4]; 6 h) was 1.27 pmol/g. For the same molecule, the “TS inhibition, corrected” value ([4]; minimal correction factor of 5%, average / all tumors) was 92%, the inhibition at 80 mg/kg ([4]; read-out: % Inhibition (TS), 1 h) was 83.3% and the inhibition at 80 mg/kg ([4]; read-out: % Inhibition (TS), 3 h) was 90%. For the same molecule, the inhibition at 80 mg/kg ([4]; read-out: % Inhibition (TS), 6 h) was 87.3%, the Tumor weight [5] was 1.03 g and the TS (TS [6]) was 9.03 p mole/g. The “5,10-CH2 FH4” value ([7]; control 0.69) was 4.11 nmol/g, the FH4 ([7]; control 1.18) was 2.39 nmol/g and the “TS inhibition as therapeutic mechanism” value [8] was “complete inhibition of TS”.

From patent US5376658A, “5,10-methylene-tetrahydrofolate as a modulator of a chemotherapeutic agent” (priority 1993, dated 1994)
